Test results from ChEMBL document CHEMBL4715869, “N-(Pyrimidin-2-yl)-1,2,3,4-tetrahydroisoquinolin-6-amine Derivatives as Selective Janus Kinase 2 Inhibitors for the Treatment of Myeloproliferative Neoplasms” (J Med Chem, 2020).

Experiments:
SET-2 [1] = test: Induction of apoptosis in human SET-2 cells assessed as live cells at 0.2 uM incubated for 24 hrs by Annexin V/PI staining based flow cytometric analysis (reference value: 96.23 %); type: functional
[2] = Toxicity in NOD/SCID mouse xenografted with human SET2 cells assessed as animal death at 15 to 60 mg/kg, po qd administered for 16 days and measured after 36 days; type: organism-based; conditions: in vivo, 864 h, dose 15-60 mg/kg, time 36 day
SET-2 [3] = test: Induction of apoptosis in human SET-2 cells assessed as live cells at 0.4 uM incubated for 24 hrs by Annexin V/PI staining based flow cytometric analysis (reference value: 96.23 %); type: functional
[4] = Tmax in male Sprague-Dawley rat at 5 mg/kg, iv administered […] measured upto 24 hrs by LC/MS/MS analysis; type: ADME, organism-based; conditions: in vivo

Q: With `Cc1cnc(Nc2ccc3c(c2)CCN(C(=O)/C=C/CN(C)C)C3)nc1-c1cnn(C(C)C)c1` as the molecule, how does the Activity (SET-2 [1]) read?
A: 90.35%

Q: What about the Activity [2] of the same molecule?
A: Toxic

Q: And the Activity (SET-2 [3])?
A: 84.92%

Q: What about the Tmax [4] of the same molecule?
A: 4.8 min
